Literature values, collected in patent US12029741B1, “5 beta dihydrotestosterone pharmaceutical formulations and related methods” (priority 2021, dated 2024).

What was measured:
[1] = transdermal treatment; called an estimate
Vascular Vessels = details: result in words

Row | SMILES | terminal half-life [1] [h] | efficacy as a vasodilator compared with testosterone (Vascular Vessels)
1 | C[C@]12CCC(=O)C[C@@H]1CC[C@@H]1[C@@H]2CC[C@]2(C)[C@@H](O)CC[C@@H]12 [5α-DHT, 5α-dihydrotestosterone] | 2.83 | less efficacious than testosterone
2 | C[C@]12CCC(=O)C[C@H]1CC[C@@H]1[C@@H]2CC[C@]2(C)[C@@H](O)CC[C@@H]12 [5β-DHT, 17β-hydroxy-5β-androstan-3-one] | – | more efficacious and/or potent than testosterone
3 | C[C@]12CC[C@H]3[C@@H](CCC4=CC(=O)CC[C@@]43C)[C@@H]1CC[C@@H]2O [testosterone] | 1.29 | –
